Experimental data: paper PMC9122626 (2020)

Experiments:
[1] = system: human telomeric G4 DNA, dAGGG(TTAGGG)3 (DNA, G4) AGGGTTAGGGTTAGGGTTAGGG; experiment: CD melting (295 nm); settings: Na+ 100 mM; peptide concentration not given
[2] = system: human telomeric G4 DNA, dAGGG(TTAGGG)3 (DNA, G4) AGGGTTAGGGTTAGGGTTAGGG; experiment: ITC; settings: 298.15 K; 64 μM DNA in cell, 700 μM peptide in syringe
[3] = system: human telomeric G4 DNA, dAGGG(TTAGGG)3 (DNA, G4) AGGGTTAGGGTTAGGGTTAGGG; experiment: thiazole orange displacement (fluorescence); settings: 298 K; at ~8.4 μM peptide; thiazole orange displaced; 0.25 μM G4, 0.50 μM TO
[4] = system: ds26 (DNA, duplex) CAATCGGATCGAATTCGATCCGATTG; experiment: ITC; settings: Na+ 100 mM
[5] = system: human telomeric G4 DNA, dAGGG(TTAGGG)3 (DNA, G4) AGGGTTAGGGTTAGGGTTAGGG; experiment: EMSA; settings: 30 μM G4; room temperature; up to 120 μM peptide

CC(C)[C@H](N)C(=O)N[C@@H](CCC(=O)N[C@@H](CCC(=O)O)C(=O)O)C(=O)N[C@@H](CCC(=O)O)C(=O)O (racemic)
Tm [1]: ~ -1 °C
binding [2]: no
% TO displacement [3]: ~ 6.5%
Ka [4]: 3360 M⁻¹
binding [5]: no
